Source: PubChem BioAssay AID270 (DTP/NCI, 2004)
Values joined by “and” are separate entries in the source; they are usually repeats but may differ in a detail not shown here. Identical values can stand only once. Records with an inconclusive call do not appear.

Tested on: BDF1 mice, s.c. Lewis lung carcinoma, T/C %
Assay: NCI In Vivo Anticancer Drug Screen. Data for tumor model Lewis Lung Carcinoma (subcutaneous) in B6D2F1 (BDF1) mice
Method in brief: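 Antitumor effect in vivo is scored from survival or tumor burden, reported as treated relative to vehicle controls.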

**Q.** With Oc1c(Cl)cc(Cl)cc1/C=N/NC(=S)Nc1cc(C(F)(F)F)cc(C(F)(F)F)c1 as the compound, how does the T/C (endpoint: median survival time, dose: 3.13 mg/kg/injection, schedule: Q01DX009 (ip), vehicle: olive oil, sesame oil, peanut oil, higher = longer survival) read?
**A.** 104 % of control

**Q.** What about the T/C (endpoint: median survival time, dose: 12.5 mg/kg/injection, schedule: Q01DX009 (ip), vehicle: olive oil, sesame oil, peanut oil, higher = longer survival) of the same compound?
**A.** 90 % of control

**Q.** Which T/C (endpoint: mean tumor weight, dose: 100.0 mg/kg/injection, schedule: Q01DX011 (ip), vehicle: carboxymethylcellulose (CMC), higher = larger tumour) does the source give for CC1OC(Oc2c(-c3cc(O)c(O)c(O)c3)oc3cc(O)cc(O)c3c2=O)C(O)C(O)C1O (configuration not stated) here?
**A.** 59 % of control

**Q.** And the T/C (endpoint: mean tumor weight, dose: 200.0 mg/kg/injection, schedule: Q01DX011 (ip), vehicle: carboxymethylcellulose (CMC), higher = larger tumour)?
**A.** 49 % of control

**Q.** And the T/C (endpoint: mean tumor weight, dose: 400.0 mg/kg/injection, schedule: Q01DX011 (ip), vehicle: carboxymethylcellulose (CMC), higher = larger tumour)?
**A.** 50 % of control

**Q.** What does the source list for C[C@]12CCC(=O)C=C1CC[C@@H]1[C@@H]2[C@@H](O)C[C@@]2(C)[C@H]1CC[C@]2(O)C(=O)COC(=O)CCC(=O)O?
**A.** T/C (endpoint: mean tumor weight, dose: 87.5 mg/kg/injection, schedule: Q01DX011 (sc), vehicle: steriod suspending solution, higher = larger tumour): 76 % of control; T/C (endpoint: mean tumor weight, dose: 175.0 mg/kg/injection, schedule: Q01DX011 (sc), vehicle: steriod suspending solution, higher = larger tumour): 79 % of control; T/C (endpoint: mean tumor weight, dose: 350.0 mg/kg/injection, schedule: Q01DX011 (sc), vehicle: steriod suspending solution, higher = larger tumour): 66 % of control; T/C (endpoint: mean tumor weight, dose: 500.0 mg/kg/injection, schedule: Q01DX011 (sc), vehicle: steriod suspending solution, higher = larger tumour): 26 % of control; T/C (endpoint: mean tumor weight, dose: 700.0 mg/kg/injection, schedule: Q01DX011 (sc), vehicle: steriod suspending solution, higher = larger tumour): 72 % of control

**Q.** COc1ccc(-c2c(CC(=O)O)c3cc(OC)ccc3n2Cc2ccc(Cl)cc2)cc1 was tested. Which T/C (endpoint: mean tumor weight, dose: 222.0 mg/kg/injection, schedule: Q01DX011 (ip), vehicle: other, higher = larger tumour) did it give?
**A.** 164 % of control

**Q.** And the T/C (endpoint: mean tumor weight, dose: 333.0 mg/kg/injection, schedule: Q01DX011 (ip), vehicle: other, higher = larger tumour)?
**A.** 151 % of control

**Q.** Which results are given for CC(C)NCC(O)COc1cccc2ccccc12 (configuration not stated)?
**A.** T/C (endpoint: median survival time, dose: 2.0 mg/kg/injection, schedule: Q01DX009 (ip), vehicle: Klucel (hydroxypropylcellulose) (HPC), higher = longer survival): 95 % of control and 110 % of control; T/C (endpoint: median survival time, dose: 2.0 mg/kg/injection, schedule: Q02DX009 (ip), vehicle: Klucel (hydroxypropylcellulose) (HPC), higher = longer survival): 123 % of control; T/C (endpoint: median survival time, dose: 4.0 mg/kg/injection, schedule: Q02DX009 (ip), vehicle: Klucel (hydroxypropylcellulose) (HPC), higher = longer survival): 95 % of control and 107 % of control; T/C (endpoint: median survival time, dose: 8.0 mg/kg/injection, schedule: Q02DX009 (ip), vehicle: Klucel (hydroxypropylcellulose) (HPC), higher = longer survival): 100 % of control and 108 % of control; T/C (endpoint: median survival time, dose: 16.0 mg/kg/injection, schedule: Q02DX009 (ip), vehicle: Klucel (hydroxypropylcellulose) (HPC), higher = longer survival): 92 % of control and 111 % of control; T/C (endpoint: median survival time, dose: 32.0 mg/kg/injection, schedule: Q02DX009 (ip), vehicle: Klucel (hydroxypropylcellulose) (HPC), higher = longer survival): 90 % of control and 105 % of control; T/C (endpoint: median survival time, dose: 64.0 mg/kg/injection, schedule: Q02DX009 (ip), vehicle: Klucel (hydroxypropylcellulose) (HPC), higher = longer survival): 101 % of control and 118 % of control

**Q.** How did the T/C (endpoint: median survival time, dose: 40.0 mg/kg/injection, schedule: Q02DX009 (ip), vehicle: Klucel (hydroxypropylcellulose) (HPC), higher = longer survival) turn out when C[C@]12CCC(=O)C=C1CC[C@@H]1[C@@H]2[C@@H](O)C[C@@]2(C)[C@H]1CC[C@]2(O)C(=O)CO was run?
**A.** 98 % of control

**Q.** And the T/C (endpoint: median survival time, dose: 80.0 mg/kg/injection, schedule: Q02DX009 (ip), vehicle: Klucel (hydroxypropylcellulose) (HPC), higher = longer survival)?
**A.** 96 % of control

**Q.** And the T/C (endpoint: median survival time, dose: 160.0 mg/kg/injection, schedule: Q02DX009 (ip), vehicle: Klucel (hydroxypropylcellulose) (HPC), higher = longer survival)?
**A.** 97 % of control

**Q.** What about the T/C (endpoint: median survival time, dose: 640.0 mg/kg/injection, schedule: Q02DX009 (ip), vehicle: Klucel (hydroxypropylcellulose) (HPC), higher = longer survival) of the same compound?
**A.** 88 % of control

**Q.** With COc1ccc(-c2cc(=O)c3c(O)cc(OC)cc3o2)cc1 as the compound, how does the T/C (endpoint: mean tumor weight, dose: 220.0 mg/kg/injection, schedule: Q01DX011 (ip), vehicle: saline, higher = larger tumour) read?
**A.** 84 % of control

**Q.** What about the T/C (endpoint: mean tumor weight, dose: 330.0 mg/kg/injection, schedule: Q01DX011 (ip), vehicle: saline, higher = larger tumour) of the same compound?
**A.** 71 % of control and 89 % of control

**Q.** And the T/C (endpoint: mean tumor weight, dose: 500.0 mg/kg/injection, schedule: Q01DX011 (ip), vehicle: saline, higher = larger tumour)?
**A.** 48 % of control and 60 % of control

**Q.** Which T/C (endpoint: median survival time, dose: 0.63 mg/kg/injection, schedule: Q01DX009 (ip), vehicle: water, higher = longer survival) does the source give for CCCCS(=O)CC(CO)NC(=O)/C=C/c1c(C)[nH]c(=O)[nH]c1=O (configuration not stated) here?
**A.** 101 % of control

**Q.** What about the T/C (endpoint: median survival time, dose: 2.5 mg/kg/injection, schedule: Q01DX009 (ip), vehicle: water, higher = longer survival) of the same compound?
**A.** 113 % of control

**Q.** And the T/C (endpoint: median survival time, dose: 5.0 mg/kg/injection, schedule: Q01DX009 (ip), vehicle: water, higher = longer survival)?
**A.** 89 % of control

**Q.** How did the T/C (endpoint: mean tumor weight, dose: 1.0 mg/kg/injection, schedule: Q01DX011 (ip), vehicle: carboxymethylcellulose (CMC), higher = larger tumour) turn out when CN1CCCC1c1cccnc1 (configuration not stated) was run?
**A.** 62 % of control

**Q.** What about the T/C (endpoint: mean tumor weight, dose: 2.0 mg/kg/injection, schedule: Q01DX011 (ip), vehicle: carboxymethylcellulose (CMC), higher = larger tumour) of the same compound?
**A.** 75 % of control

**Q.** What about the T/C (endpoint: mean tumor weight, dose: 4.0 mg/kg/injection, schedule: Q01DX011 (ip), vehicle: carboxymethylcellulose (CMC), higher = larger tumour) of the same compound?
**A.** 72 % of control
